Laboratory results reported in patent US4965280A, “Antifungal carbinols” (E. I. Du Pont de Nemours and Company, priority 1989, dated 1990).

Experiments:
Test in all cases: Test E
[1] = system: SNTLS CHAMOMILE; assay type: in vivo, Matricaria indora
[2] = system: CMN CHICKWEED; assay type: in vivo, Stellaria media
[3] = system: PERSN SPEEDWELL; assay type: in vivo, Veronica persica
[4] = system: WILD OATS; assay type: in vivo, Avena fatua
[5] = system: WILD RADISH; assay type: in vivo, Raphanus raphanistrum
[6] = system: BLACK NIGHTSHAD; assay type: in vivo, Solanum nigrum
[7] = system: BLACKGRASS; assay type: in vivo, Alopercurus mysuroides
From the text: Seeds of the following crops and weeds are sown into 15 cm pots containing Sassafras sandy loam soil: wheat (Triticum aestivum cv. Park), barley (Hordeum vulgare cv. Bonanza), sugarbeet (Beta vulgaris cv. USH-11), rapeseed (Brassica napus cv. Jet Neuf), black nightshade (Solanum nigrum), chickweed (Stellaria media), lambsquarter (Chenopodium album), Galium aparine, knotweed (Polygonum aviculare), Kochia scoparia, Matricaria indora, redroot pigweed (Amaranthus retroflexus), smartweed (Polygonum persicaria), speedwell (Veronica persica), wild buckwheat (Polygonum convolvulus), wild mustard (Brassica spp.), wild radish (Raphanus raphanistrum), annual bluegrass (PO annua), annual ryegrass (Lolium multiflorum), blackgrass (Alopercurus mysuroides), green foxtail (Setaria viridis), and wild oats (Avena fatua). Compounds are formulated in a nonphytotoxic solvent and applied to the plants as a foliar spray or applied to the soil surface. Plants are treated at two stages: preemergence, or postemergence when the sugarbeets are at the 2-3 true leaf stage. Plants are grown in a temperature-controlled greenhouse for the duration of the test.
Weed control and crop injury are evaluated visually at 3-4 weeks after compound application, using a scale of 0 to 100%, where 0=no injury and 100=complete death of the plant. All plants are rated with respect to untreated plants (checks) grown in the greenhouse under identical conditions to the treated plants.

[8] = system: MUSTARD SPP.; assay type: in vivo, Brassica spp.

SMILES | plant response ([1]; POSTEMERGENCE 0064 GM/HA) [%] | plant response ([1]; POSTEMERGENCE 0125 GM/HA) [%] | plant response ([1]; POSTEMERGENCE 0250 GM/HA) [%] | plant response ([1]; POSTEMERGENCE 0500 GM/HA) [%] | plant response ([2]; POSTEMERGENCE 0064 GM/HA) [%] | plant response ([2]; POSTEMERGENCE 0125 GM/HA) [%] | plant response ([2]; POSTEMERGENCE 0250 GM/HA) [%] | plant response ([2]; POSTEMERGENCE 0500 GM/HA) [%] | plant response ([3]; POSTEMERGENCE 0064 GM/HA) [%] | plant response ([3]; POSTEMERGENCE 0125 GM/HA) [%] | plant response ([3]; POSTEMERGENCE 0250 GM/HA) [%] | plant response ([3]; POSTEMERGENCE 0500 GM/HA) [%] | plant response ([4]; POSTEMERGENCE 0064 GM/HA) [%] | plant response ([4]; POSTEMERGENCE 0125 GM/HA) [%] | plant response ([4]; POSTEMERGENCE 0250 GM/HA) [%] | plant response ([4]; POSTEMERGENCE 0500 GM/HA) [%] | plant response ([5]; POSTEMERGENCE 0064 GM/HA) [%] | plant response ([5]; POSTEMERGENCE 0125 GM/HA) [%] | plant response ([5]; POSTEMERGENCE 0250 GM/HA) [%] | plant response ([5]; POSTEMERGENCE 0500 GM/HA) [%] | also measured
C=C(c1ccc(F)cc1)C(O)(Cn1cncn1)c1ccccc1F (centres unmarked) [Example 644] | 20 | 50 | 50 | 90 | 0 | 0 | 0 | 0 | 0 | 20 | 40 | 80 | 0 | 0 | 20 | 20 | 20 | 30 | 50 | 80 | plant response ([1]; PREEMERGENCE 0500 GM/HA): 100%; plant response ([2]; PREEMERGENCE 0500 GM/HA): 20%; plant response ([3]; PREEMERGENCE 0500 GM/HA): 50%; plant response ([4]; PREEMERGENCE 0500 GM/HA): 20%; plant response ([5]; PREEMERGENCE 0500 GM/HA): 0%; plant response ([6]; POSTEMERGENCE 0064 GM/HA): 0%; plant response ([6]; POSTEMERGENCE 0125 GM/HA): 0%; plant response ([6]; POSTEMERGENCE 0250 GM/HA): 10%; plant response ([6]; POSTEMERGENCE 0500 GM/HA): 20%; plant response ([6]; PREEMERGENCE 0500 GM/HA): 0%; plant response ([7]; POSTEMERGENCE 0064 GM/HA): 0%; plant response ([7]; POSTEMERGENCE 0125 GM/HA): 0%; plant response ([7]; POSTEMERGENCE 0250 GM/HA): 30%; plant response ([7]; POSTEMERGENCE 0500 GM/HA): 50%; plant response ([7]; PREEMERGENCE 0500 GM/HA): 20%; plant response ([8]; POSTEMERGENCE 0064 GM/HA): 20%; plant response ([8]; POSTEMERGENCE 0125 GM/HA): 20%; plant response ([8]; POSTEMERGENCE 0250 GM/HA): 50%; plant response ([8]; POSTEMERGENCE 0500 GM/HA): 50%; plant response ([8]; PREEMERGENCE 0500 GM/HA): 0%
C=C(c1ccccc1)C(O)(Cn1cncn1)c1ccc(F)cc1F (centres unmarked) [Example 52, 2-(2,4-Difluorophenyl)-3-phenyl-1-(1H-1,2,4-triazol-1-yl)-3-buten-2-ol] | 20 | 50 | 50 | 85 | 0 | 0 | 0 | 0 | 40 | 30 | 60 | 90 | 0 | 0 | 20 | 30 | 10 | 10 | 50 | 80 | plant response ([1]; PREEMERGENCE 0250 GM/HA): 100%; plant response ([2]; PREEMERGENCE 0250 GM/HA): 0%; plant response ([3]; PREEMERGENCE 0250 GM/HA): 100%; plant response ([4]; PREEMERGENCE 0250 GM/HA): 70%; plant response ([5]; PREEMERGENCE 0250 GM/HA): 50%; plant response ([6]; POSTEMERGENCE 0064 GM/HA): 0%; plant response ([6]; POSTEMERGENCE 0125 GM/HA): 0%; plant response ([6]; POSTEMERGENCE 0250 GM/HA): 10%; plant response ([6]; POSTEMERGENCE 0500 GM/HA): 70%; plant response ([6]; PREEMERGENCE 0250 GM/HA): 100%; plant response ([7]; POSTEMERGENCE 0064 GM/HA): 0%; plant response ([7]; POSTEMERGENCE 0125 GM/HA): 0%; plant response ([7]; POSTEMERGENCE 0250 GM/HA): 20%; plant response ([7]; POSTEMERGENCE 0500 GM/HA): 60%; plant response ([7]; PREEMERGENCE 0250 GM/HA): 20%; plant response ([8]; POSTEMERGENCE 0064 GM/HA): 0%; plant response ([8]; POSTEMERGENCE 0125 GM/HA): 0%; plant response ([8]; POSTEMERGENCE 0250 GM/HA): 20%; plant response ([8]; POSTEMERGENCE 0500 GM/HA): 50%; plant response ([8]; PREEMERGENCE 0250 GM/HA): 50%
